According to patent US20220227765A1, “PYRIDO-INDOLE ANALOGUES AS GPX4 INHIBITORS” (Ferro Therapeutics, Inc., priority 2019, published 2022):
Where two headings read alike, the source gives them in different places.

Columns and labels:
Type in all cases: cell-based, human
786-O = experiment: Cell proliferation (Alamar Blue) assay, 786-O
Description: (§1) Cell viability assay was performed to assess the potency of the compounds in human cancer cell lines 786-0 (renal cell carcinoma) and SJSA-1 (osteosarcoma). Additional cell lines, such as pancreatic cancer cell lines (Panc 02.13, BxPC-3, Panc 12, Panc 02.03, Panc 6.03, PSN-1, HPAC, and Capan-1), prostate cancer cell lines (PC-3, DU145, 22Rv1, NCI-H660, BPH1, LNCaP, BM-1604, and MDA PCa 2b), etc., can be tested in a similar method.
(§2) Cells (SJSA-1, 786-0 and A431) were seeded (5000 cells/100 μL/well) in 96-well tissue culture plate and incubated at 37° C./5% CO2 for 16-24 hours. The cells were then treated with compounds (25 μL of 5×). The compound concentrations were 10-0.0005 μM prepared in 3-fold serial dilutions with final DMSO concentration of 1%. The plates were then incubated for 24 h at 37° C./5% CO2 in a moist environment. Then Alamar Blue™ reagent (final concentration 1×-12.5 μL) was added to each well and incubated for 1.5 hours at 37° C./5% CO2. The plates were read on fluorescence reader at 540 nm excitation and 590 nm emission wavelengths. The IC50 values were subsequently determined using a sigmoidal dose-response curve (variable slope) in GraphPad Prism® 5 software. Table A-3, Table B-3 and Table C-3 show cell proliferation data for certain compounds as described herein.

SJSA-1 = experiment: Cell proliferation (Alamar Blue) assay, SJSA-1
Description: as §1, §2

A431 = experiment: Cell proliferation (Alamar Blue) assay, A431; conditions: Homo sapiens, A-431, 24 h
Description: as §1, §2

[1] = Homo sapiens, 786-0, 24 h, Table A-3, 786-O cells
[2] = Homo sapiens, SJSA-1, 24 h, Table A-3, SJSA-1 cells, 24 h, read-out: IC50 (μM) SJSA-1
[3] = Homo sapiens, 786-0, 24 h, Table B-3, 786-O cells
[4] = Homo sapiens, SJSA-1, 24 h, Table B-3, head prints SJSB-1, 24 h, read-out: IC50 (μM) SJSB-1
[5] = Table B-3, head prints SJSB-1, 24 h, read-out: IC50 (μM) SJSB-1
[6] = Homo sapiens, 786-0, 24 h, Table C-3, 786-O cells
[7] = Homo sapiens, SJSA-1, 24 h, Table C-3, SJSA-1 cells, 24 h, read-out: IC50 (μM) SJSA-1

Row | IC50 (786-O; [3]) [µM] | IC50 (SJSA-1; [4]) [µM] | IC50 (A431; Table B-3, A431 cells) [µM] | SMILES | other results
1 | 0.006 | 0.014 | 3.2 | C#CC(=O)N1[C@@H](CCCC)Cc2c([nH]c3ccccc23)[C@@H]1c1ccc(-c2nc(C)no2)cc1 [Compound B-2, 1-((1S,3S)-3-butyl-1-(4-(3-methyl-1,2,4-oxadiazol-5-yl)phenyl)-1,3,4,9-tetrahydro-2H-pyrido[3,4-b]indol-2-yl)prop-2-yn-1-one] | –
2 | > 10 | > 10 | – | COC(=O)[C@H]1Cc2c([nH]c3ccccc23)[C@@H](c2ccc(N(C(=O)CCCC[C@@H]3SC[C@@H]4NC(=O)N[C@@H]43)C3CC3)cc2)N1C(=O)CCl [Compound B-9, methyl (1R,3R)-2-(2-chloroacetyl)-1-(4-(N-cyclopropyl-5-((3aS,4S,6aR)-2-oxohexahydro-1H-thieno[3,4-d]imidazol-4-yl)pentanamido)phenyl)-2,3,4,9-tetrahydro-1H-pyrido[3,4-b]indole-3-carboxylate] | –
3 | 0.013 | 0.018 | 7.2 | C#CC(=O)N1[C@@H](CCCC)Cc2c([nH]c3ccccc23)[C@@H]1c1ccc(NC2CCS(=O)(=O)CC2)cc1 [Compound B-13] | –
4 | 0.013 | 0.029 | > 10 | C#CC(=O)N1[C@@H](CCCC)Cc2c([nH]c3ccccc23)[C@@H]1c1ccc(NC(=O)c2ccncc2)cc1 [Compound B-15] | –
5 | 0.007 | 0.029 | 6.4 | C#CC(=O)N1[C@@H](CCCC)Cc2c([nH]c3ccccc23)[C@@H]1c1ccc(C(=O)NCC2(O)CCC2)cc1 [Compound B-16] | –
6 | 0.086 | 0.084 | – | C#CC(=O)N1[C@@H](CCCC)Cc2c([nH]c3c(F)cc(F)cc23)[C@@H]1C12CC(NC(=O)OCCCCC)(C1)C2 [Compound B-84] | –
7 | 0.08 | 0.293 | – | C#CC(=O)N1[C@@H](CCCC)Cc2c(n(C)c3c(F)cc(F)cc23)[C@@H]1c1ccc(NC(=O)OCCCCC)cc1 [Compound B-96] | –
8 | 0.155 | – | 7.97 | C#CC(=O)N1[C@@H](CCCC)Cc2c(oc3ccccc23)[C@@H]1c1ccc(NC(=O)OCCCCC)cc1 [Compound B-101] | –

Continued, compound first:

Row | SMILES | IC50 (786-O; [3]) [µM] | IC50 (SJSA-1; [4]) [µM] | IC50 (A431; Table B-3, A431 cells) [µM] | other results
9 | C[C@H]1Cc2c([nH]c3ncccc23)[C@H](c2ccc(F)cc2)N1C(=O)CCl [Compound A-1] | – | – | – | IC50 (786-O; [1]): 0.03 µM; IC50 (SJSA-1; [2]): 0.145 µM; IC50 (A431; Table A-3, A431 cells): > 10 µM
10 | C[C@H]1Cc2c([nH]c3ncccc23)[C@@H](c2ccc(F)cc2)N1C(=O)CCl [Compound A-2] | – | – | – | IC50 (786-O; [1]): 3.52 µM; IC50 (SJSA-1; [2]): 9.11 µM; IC50 (A431; Table A-3, A431 cells): 7.06 µM
11 | C#CC(=O)N1[C@@H](CCCC)Cc2c([nH]c3ncccc23)[C@@H]1c1ccc(F)cc1 [Compound A-3] | – | – | – | IC50 (786-O; [1]): 0.017 µM; IC50 (SJSA-1; [2]): 0.017 µM; IC50 (A431; Table A-3, A431 cells): 8.36 µM
12 | C#CC(=O)N1[C@@H](CCCC)Cc2c([nH]c3ncccc23)[C@@H]1c1ccc(NC23CC4CC(CC(C4)C2)C3)cc1 [Compound A-7] | – | – | – | IC50 (786-O; [1]): 0.034 µM; IC50 (SJSA-1; [2]): 0.058 µM; IC50 (A431; Table A-3, A431 cells): 4.88 µM
13 | CCCC[C@H]1Cc2c([nH]c3ccccc23)[C@H](c2ccc(C(=O)NC34CC5CC(CC(C5)C3)C4)cc2)N1C(=O)CCl [Compound B-1, N-((1R,3R)-adamantan-1-yl)-4-((1S,3S)-3-butyl-2-(2-chloroacetyl)-2,3,4,9-tetrahydro-1H-pyrido[3,4-b]indol-1-yl)benzamide] | 0.001 | 0.003 | 2.7 | –
14 | C#CC(=O)N1[C@@H](CCCC)Cc2c([nH]c3ccccc23)[C@@H]1c1ccc(NC2CCC2)cc1 [Compound B-4, 1-((1S,3S)-3-butyl-1-(4-(cyclobutylamino)phenyl)-1,3,4,9-tetrahydro-2H-pyrido[3,4-b]indol-2-yl)prop-2-yn-1-one] | 0.008 | 0.015 | 5.9 | –
15 | C#CC(=O)N1[C@@H](c2ccc(NC34CC5CC(CC(C5)C3)C4)cc2)c2[nH]c3ccccc3c2C[C@@H]1C(=O)OC [Compound B-6, methyl (1S,3R)-1-(4-(((3R,5R,7R)-adamantan-1-yl)amino)phenyl)-2-propioloyl-2,3,4,9-tetrahydro-1H-pyrido[3,4-b]indole-3-carboxylate] | 0.024 | 0.024 | 6.1 | –
16 | C#CC(=O)N1[C@@H](CCCC)Cc2c([nH]c3ccccc23)[C@@H]1c1ccc(C(=O)NC23CC4CC(CC(C4)C2)C3)cc1 [Compound B-7, N-((3R,5R,7R)-adamantan-1-yl)-4-((1S,3S)-3-butyl-2-propioloyl-2,3,4,9-tetrahydro-1H-pyrido[3,4-b]indol-1-yl)benzamide] | 0.002 | 0.002 | 5.5 | –
17 | COC(=O)[C@H]1Cc2c([nH]c3ccccc23)[C@H](c2ccc(N(C(=O)CCCC[C@@H]3SC[C@@H]4NC(=O)N[C@@H]43)C3CC3)cc2)N1C(=O)CCl [Compound B-8, methyl (1S,3R)-2-(2-chloroacetyl)-1-(4-(N-cyclopropyl-5-((3aS,4S,6aR)-2-oxohexahydro-1H-thieno[3,4-d]imidazol-4-yl)pentanamido)phenyl)-2,3,4,9-tetrahydro-1H-pyrido[3,4-b]indole-3-carboxylate] | 1.7 | 1.9 | – | –
18 | C#CC(=O)N1[C@@H](CCCC)Cc2c([nH]c3ccc(F)cc23)[C@@H]1c1ccc(C(=O)NCCOC)cc1 [Compound B-11] | 0.008 | 0.025 | 4.3 | –
19 | CCCC[C@H]1Cc2c([nH]c3ccccc23)[C@H](c2ccc(NC(=O)c3ccncc3)cc2)N1C(=O)CCl [Compound B-14] | 0.015 | 0.019 | 3 | –
20 | C#CC(=O)N1[C@@H](CCCC)Cc2c([nH]c3ccccc23)[C@@H]1c1ccc(NC23CC4CC(CC(O)(C4)C2)C3)cc1 [Compound B-44] | 0.006 | 0.014 | – | –
21 | C#CC(=O)N1[C@@H](CCCC)Cc2c([nH]c3ccccc23)[C@@H]1c1ccc(N2C3CCC2COC3)cc1 [Compound B-66, 1-((1 S,3 S)-1-(4-(3-oxa-8-azabicyclo[3.2.1]octan-8-yl)phenyl)-3-butyl-1,3,4,9-tetrahydro-2H-pyrido[3,4-b]indol-2-yl)prop-2-yn-1-one] | – | – | 4.35 | –
22 | C#CC(=O)N1[C@@H](CCCC)Cc2c([nH]c3c(F)cc(F)cc23)[C@@H]1C1CCN(C(=O)OC)CC1 [Compound B-75] | – | – | – | IC50 (786-O; Table B-3, 786-O cells, 24 h): 0.03 µM; IC50 (SJSA-1; [5]): 0.06 µM
23 | C#CC(=O)N1[C@@H](CCCC)Cc2c([nH]c3c(F)cc(F)cc23)[C@@H]1c1ccc(NC(=O)OCCCCC)cc1 [Compound B-91] | – | – | – | IC50 (786-O; Table B-3, 786-O cells, 24 h): 0.076 µM; IC50 (SJSA-1; [5]): 0.075 µM
24 | C#CC(=O)N1[C@@H](CCCC)Cc2c(n(CC(O)CO)c3c(F)cc(F)cc23)[C@@H]1c1ccc(NC(=O)OCCCCC)cc1 (some centres unmarked) [Compound B-98] | 0.181 | – | > 10 | –
25 | C[C@H]1Cc2c([nH]c3ccccc23)[C@](C)(c2ccc(F)cc2)N1C(=O)CCl [Compound C-18] | – | – | – | IC50 (786-O; [6]): 0.437 µM; IC50 (SJSA-1; [7]): 0.332 µM
26 | C#CC(=O)N1CCc2c([nH]c3ccccc23)C1(C)c1ccc(F)cc1 (centres unmarked) [Compound C-19] | – | – | – | IC50 (786-O; [6]): 2.32 µM; IC50 (SJSA-1; [7]): 1.89 µM
27 | CC1(c2ccc(F)cc2)c2[nH]c3ccccc3c2CCN1C(=O)CCl (centres unmarked) [Compound C-20] | – | – | – | IC50 (786-O; [6]): 4.49 µM; IC50 (SJSA-1; [7]): 3.98 µM
28 | C#CC(=O)N1[C@@H](CCCC)Cc2cc(OC)ccc2[C@]1(C)c1ccc(NC23CC4CC(CC(C4)C2)C3)cc1 [Compound C-35] | – | – | – | IC50 (786-O; [6]): 0.45 µM; IC50 (A431; Table C-3, A431 cells): > 10 µM
29 | C#CC(=O)N1[C@@H](CCCC)Cc2cc(OC)ccc2[C@@]1(C)c1ccc(NC23CC4CC(CC(C4)C2)C3)cc1 [Compound C-36] | – | – | – | IC50 (786-O; [6]): 0.69 µM; IC50 (A431; Table C-3, A431 cells): > 10 µM
